In US7964624B1, “Inhibitors of serine proteases” (priority 2005, dated 2011):

target: T1, HCV NS3 protease domain (Hepatitis C virus genotype 1b, UniProt Q9WMX2); assay: biochemical; conditions: Enzyme Assay 1 (HCV NS3 Protease Domain Peptide Cleavage Assay) activity, apparent Ki class
T1 construct: The first 181 amino acids of NS3 (residues 1027-1207 of the viral polyprotein); hexa-histidine (C); made in house; host or cells: E. coli BL21/DE3 pLysS
T1 sequence (Q9WMX2 1027-1207, other chains not shown): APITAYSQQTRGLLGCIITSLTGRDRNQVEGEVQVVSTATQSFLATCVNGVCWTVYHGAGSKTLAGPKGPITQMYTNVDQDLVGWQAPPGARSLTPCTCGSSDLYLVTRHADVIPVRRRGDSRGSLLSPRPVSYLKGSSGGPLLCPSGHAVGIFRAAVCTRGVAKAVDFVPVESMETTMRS

| SMILES | Ki |
| --- | --- |
| CCC[C@H](NC(=O)[C@@H]1C[C@]2(CC(C)=NO2)CN1C(=O)[C@@H](NC(C)=O)C(C)(C)C)C(=O)C(=O)NC1CC1 [Compound 180] | > 500 nM |
| CCC[C@H](NC(=O)[C@@H]1C[C@]2(CC(C3CCCC3)=NO2)CN1C(=O)[C@@H](NC(=O)O[C@H]1CCOC1)C(C)(C)C)C(=O)C(=O)NC1CC1 [Compound 70] | > 500 nM |
| CCC[C@H](NC(=O)[C@@H]1C[C@]2(CC(c3cccc(Cl)c3)=NO2)CN1C(=O)[C@@H](NC(=O)C(F)c1ccccc1)C(C)(C)C)C(=O)C(=O)NC1CC1 (stereo partly drawn) [Compound 393] | 100 to 500 nM |
| CCC[C@H](NC(=O)[C@@H]1C[C@]2(CC(c3cccc(Cl)c3)=NO2)CN1C(=O)[C@@H](Nc1cccc(OC)c1)C(C)(C)C)C(=O)C(=O)NC1CC1 [Compound 214] | > 500 nM |
| CCC[C@H](NC(=O)[C@@H]1C[C@]2(CC(c3cc(C)c(OC)c(C)c3)=NO2)CN1C(=O)[C@@H](NC(=O)CC1CCOCC1)C(C)(C)C)C(=O)C(=O)NC1CC1 [Compound 572] | 100 to 500 nM |
| CCC[C@H](NC(=O)[C@@H]1C[C@]2(CC(c3ccc4c(c3)CCO4)=NO2)CN1C(=O)[C@@H](NC(=O)CC1CCCCC1)C(C)(C)C)C(=O)C(=O)NC1CC1 [Compound 552] | 100 to 500 nM |
| CCC[C@H](NC(=O)[C@@H]1C[C@]2(CC(c3cc(F)c(F)c(F)c3)=NO2)CN1C(=O)[C@@H](NC(=O)O[C@H]1CCOC1)C(C)(C)C)C(=O)C(=O)NC1CC1 [Compound 215] | 100 to 500 nM |
| CCC[C@H](NC(=O)[C@@H]1C[C@]2(CC(c3cccc(Cl)c3)=NO2)CN1C(=O)[C@@H](NC(=O)[C@@H](CC(=O)N1CCCC1)C1CCCCC1)C(C)(C)C)C(=O)C(=O)NC1CC1 [Compound 549] | < 100 nM |
| CCC[C@H](NC(=O)[C@@H]1C[C@]2(CC(c3ccccc3)=NO2)CN1C(=O)[C@@H](NC(=O)OCc1ccccc1)C(C)(C)C)C(=O)C(=O)NC1CC1 [Compound 520] | > 500 nM |
| CCC[C@H](NC(=O)[C@@H]1C[C@]2(CC(c3cccc(Cl)c3)=NO2)CN1C(=O)[C@@H](NC(=O)C(C)Cn1cnc2ccccc21)C(C)(C)C)C(=O)C(=O)NC1CC1 (stereo partly drawn) [Compound 544] | 100 to 500 nM |
| CCC[C@H](NC(=O)[C@@H]1C[C@]2(CC(c3cccc(Cl)c3)=NO2)CN1C(=O)[C@@H](NC(=O)[C@H]1CC[C@H](OC)CC1)C(C)(C)C)C(=O)C(=O)NC1CC1 [Compound 503] | 100 to 500 nM |
| CCC[C@H](NC(=O)[C@@H]1C[C@]2(CC(c3cccc(F)c3)=NO2)CN1C(=O)[C@@H](NC(=O)O[C@H]1CCOC1)C(C)(C)C)C(=O)C(=O)NC1CC1 [Compound 24] | 100 to 500 nM |
| CCC[C@H](NC(=O)[C@@H]1C[C@]2(CC(c3ccc(OC)cc3OC)=NO2)CN1C(=O)OCC1c2ccccc2-c2ccccc21)C(=O)C(=O)NC1CC1 [Compound 371] | 100 to 500 nM |
| CCC[C@H](NC(=O)C1C[C@]2(CC(c3ccc(C(F)(F)F)cc3)=NO2)CN1C(=O)[C@@H](NC(=O)O[C@H]1CCOC1)C(C)(C)C)C(=O)C(=O)NC1CC1 (stereo partly drawn) [Compound 52] | 100 to 500 nM |
| CCC[C@H](NC(=O)[C@@H]1C[C@]2(CC(c3cccc(Cl)c3)=NO2)CN1C(=O)[C@@H](NC(=O)NC(C)(C)C)C(C)(C)C)C(=O)C(=O)NC1CC1 [Compound 492] | < 100 nM |
| CCC[C@H](NC(=O)[C@@H]1C[C@]2(CC(c3cccc(Cl)c3)=NO2)CN1C(=O)[C@@H](NC(=O)OCCF)C(C)(C)C)C(=O)C(=O)NC1CC1 [Compound 85] | 100 to 500 nM |
| CCC[C@H](NC(=O)[C@@H]1C[C@]2(CC(c3cccc(Cl)c3)=NO2)CN1C(=O)[C@@H](NC(=O)c1c(OC)ccc2ccccc12)C(C)(C)C)C(=O)C(=O)NC1CC1 [Compound 435] | 100 to 500 nM |
| CCC[C@H](NC(=O)[C@@H]1C[C@]2(CC(c3cccc(Cl)c3)=NO2)CN1C(=O)[C@@H](NC(=O)C(C)N1Cc2ccccc2C1=O)C(C)(C)C)C(=O)C(=O)NC1CC1 (stereo partly drawn) [Compound 317] | > 500 nM |
| CCC[C@H](NC(=O)[C@@H]1C[C@]2(CC(c3ccc(C)c(F)c3)=NO2)CN1C(=O)O[C@H]1CCOC1)C(=O)C(=O)NC1CC1 [Compound 11] | > 500 nM |
| CCC[C@H](NC(=O)[C@@H]1C[C@]2(CC(c3ccc(CC)o3)=NO2)CN1C(=O)[C@@H](NC(=O)CC1CCOCC1)C(C)(C)C)C(=O)C(=O)NC1CC1 [Compound 554] | > 500 nM |
| CCC[C@H](NC(=O)[C@@H]1C[C@]2(CC(c3ccc4noc(-c5ccc(Cl)cc5)c4c3)=NO2)CN1C(=O)[C@@H](NC(=O)O[C@H]1CCOC1)C(C)(C)C)C(=O)C(=O)NC1CC1 [Compound 448] | 100 to 500 nM |
| CCC[C@H](NC(=O)[C@@H]1C[C@]2(CC(CCC(=O)OC)=NO2)CN1C(=O)[C@@H](NC(=O)O[C@H]1CCOC1)C(C)(C)C)C(=O)C(=O)NC1CC1 [Compound 229] | > 500 nM |
| CCC[C@H](NC(=O)[C@@H]1C[C@]2(CC(c3cccc(-c4ccccc4)c3)=NO2)CN1C(=O)[C@@H](NC(=O)O[C@H]1CCOC1)C(C)(C)C)C(=O)C(=O)NC1CC1 [Compound 257] | 100 to 500 nM |
| CCC[C@H](NC(=O)[C@@H]1C[C@]2(CC(c3cccc(Br)c3)=NO2)CN1C(=O)[C@@H](NC(=O)OCc1ccccc1)C(C)(C)C)C(=O)C(=O)NC1CC1 [Compound 239] | 100 to 500 nM |

| SMILES | Ki |
| --- | --- |
| CCC[C@H](NC(=O)[C@@H]1C[C@]2(CC(c3ccc([N+](=O)[O-])cc3)=NO2)CN1C(=O)[C@@H](NC(=O)O[C@H]1CCOC1)C(C)(C)C)C(=O)C(=O)NC1CC1 [Compound 511] | 100 to 500 nM |
| CCC[C@H](NC(=O)[C@@H]1C[C@]2(CC(c3cc(C)cc(C)c3)=NO2)CN1C(=O)[C@@H](NC(=O)O[C@H]1CCOC1)C(C)(C)C)C(=O)C(=O)NC1CC1 [Compound 519] | 100 to 500 nM |
| CCC[C@H](NC(=O)[C@@H]1C[C@]2(CC(c3cccc(Cl)c3)=NO2)CN1C(=O)[C@@H](NC(=O)OCCc1ccc(F)cc1)C(C)(C)C)C(=O)C(=O)NC1CC1 [Compound 118] | > 500 nM |
| CCC[C@H](NC(=O)[C@@H]1C[C@]2(CC(c3cccc(C(=O)O)c3)=NO2)CN1C(=O)[C@@H](NC(=O)O[C@H]1CCOC1)C(C)(C)C)C(=O)C(=O)NC1CC1 [Compound 481] | > 500 nM |
| CCC[C@H](NC(=O)[C@@H]1C[C@]2(CC(c3cccc(Cl)c3)=NO2)CN1C(=O)[C@@H](NC(=O)OC(C)Cc1cccs1)C(C)(C)C)C(=O)C(=O)NC1CC1 (stereo partly drawn) [Compound 254] | 100 to 500 nM |
| CCC[C@H](NC(=O)[C@@H]1C[C@]2(CC(c3ccccc3)=NO2)CN1C(=O)[C@@H](NC(=O)NCC1CCCCC1)C(C)(C)C)C(=O)C(=O)NC1CC1 [Compound 249] | 100 to 500 nM |
| CCC[C@H](NC(=O)[C@@H]1C[C@]2(CC(c3ccc(OC)c(OC4CCCC4)c3)=NO2)CN1C(=O)[C@@H](NC(=O)O[C@H]1CCOC1)C(C)(C)C)C(=O)C(=O)NC1CC1 [Compound 8] | > 500 nM |
| CCC[C@H](NC(=O)[C@@H]1C[C@]2(CC(c3cccc(Cl)c3)=NO2)CN1C(=O)C1CC1c1ccccc1)C(=O)C(=O)NC1CC1 (stereo partly drawn) [Compound 421] | > 500 nM |
| CCC[C@H](NC(=O)[C@@H]1C[C@@]2(CC(c3cccc(C(F)(F)F)c3)=NO2)CN1C(=O)[C@@H](NC(=O)O[C@H]1CCOC1)C(C)(C)C)C(=O)C(=O)NC1CC1 [Compound 509] | > 500 nM |
| CCC[C@H](NC(=O)[C@@H]1C[C@]2(CC(Cc3ccccc3)=NO2)CN1C(=O)[C@@H](NC(=O)O[C@H]1CCOC1)C(C)(C)C)C(=O)C(=O)NC1CC1 [Compound 251] | > 500 nM |
| CCC[C@H](NC(=O)[C@@H]1C[C@]2(CC(c3ccc(O)cc3)=NO2)CN1C(=O)[C@@H](NC(=O)O[C@H]1CCOC1)C(C)(C)C)C(=O)C(=O)NC1CC1 [Compound 530] | > 500 nM |
| CCC[C@H](NC(=O)[C@@H]1C[C@]2(CC(c3cc(F)cc(C(F)(F)F)c3)=NO2)CN1C(=O)O[C@H]1CCOC1)C(=O)C(=O)NC1CC1 [Compound 348] | > 500 nM |
| CCC[C@H](NC(=O)[C@@H]1C[C@]2(CC(c3ccc(OC(F)(F)F)cc3)=NO2)CN1C(=O)O[C@H]1CCOC1)C(=O)C(=O)NC1CC1 [Compound 524] | > 500 nM |
| CCC[C@H](NC(=O)[C@@H]1C[C@]2(CC(c3cccc(Cl)c3)=NO2)CN1C(=O)[C@@H](NC(=O)CCC1CCCCC1)C(C)(C)C)C(=O)C(=O)NC1CC1 [Compound 226] | 100 to 500 nM |
| CCC[C@H](NC(=O)[C@@H]1C[C@]2(CC(c3cc(F)cc(Cl)c3)=NO2)CN1C(=O)[C@@H](NC(=O)CC1CCCCC1)C(C)(C)C)C(=O)C(=O)NC1CC1 [Compound 95] | 100 to 500 nM |
| CCC[C@H](NC(=O)[C@@H]1C[C@]2(CC(c3ccc4c(c3)OCO4)=NO2)CN1C(=O)[C@@H](NC(=O)[C@@H](NC(=O)c1cnccn1)C(C)(C)C)C(C)(C)C)C(=O)C(=O)NC1CC1 [Compound 450] | < 100 nM |
| CCC[C@H](NC(=O)[C@@H]1C[C@]2(CC(c3cccc(Cl)c3)=NO2)CN1C(=O)[C@@H](NC(=O)Cc1cccc(OC(F)(F)F)c1)C(C)(C)C)C(=O)C(=O)NC1CC1 [Compound 585] | 100 to 500 nM |
| CCC[C@H](NC(=O)[C@@H]1C[C@]2(CC(c3cccc(Cl)c3)=NO2)CN1C(=O)CNC(=O)OCC)C(=O)C(=O)NC1CC1 [Compound 207] | > 500 nM |
| CCC[C@H](NC(=O)[C@@H]1C[C@]2(CC(c3cccc(Cl)c3)=NO2)CN1C(=O)[C@@H](NC(=O)OCc1ccccc1Cl)C(C)(C)C)C(=O)C(=O)NC1CC1 [Compound 39] | 100 to 500 nM |
| CCC[C@H](NC(=O)[C@@H]1C[C@]2(CC(c3cccc(Cl)c3)=NO2)CN1C(=O)[C@@H](NC(=O)OCc1cccc(F)c1)C(C)(C)C)C(=O)C(=O)NC1CC1 [Compound 209] | 100 to 500 nM |
| CCC[C@H](NC(=O)[C@@H]1C[C@]2(CC(c3cccc(Cl)c3)=NO2)CN1C(=O)[C@@H](NC(=O)N1CCC2(CC1)CC(=O)c1ccccc12)C(C)(C)C)C(=O)C(=O)NC1CC1 [Compound 291] | > 500 nM |
| CCC[C@H](NC(=O)[C@@H]1C[C@]2(CC(c3ccccc3Cl)=NO2)CN1C(=O)[C@@H](NC(=O)OCc1ccccc1)C(C)(C)C)C(=O)C(=O)NC1CC1 [Compound 164] | > 500 nM |
| CCC[C@H](NC(=O)[C@@H]1C[C@]2(CC(c3ccc(Cl)s3)=NO2)CN1C(=O)[C@@H](NC(=O)CC1CCCCC1)C(C)(C)C)C(=O)C(=O)NC1CC1 [Compound 478] | 100 to 500 nM |
| CCC[C@H](NC(=O)[C@@H]1C[C@]2(CC(c3cc(C)c(OC)c(C)c3)=NO2)CN1C(=O)[C@@H](NC(=O)O[C@H]1CCOC1)C(C)(C)C)C(=O)C(=O)NC1CC1 [Compound 191] | > 500 nM |
